From patent US11173150B2, “Method for diagnosing, preventing, and treating neurological diseases” (United States Government As Represented By The Department …, priority 2010, dated 2021)

Experiments:
[1] = Open-label trial of oral vancomycin in children with regressive onset autism; type: in vivo, human
Source text: To explore whether our index case's improvement represented a true therapeutic effect, institutional human investigation committee approval was obtained for an open-label trial in a narrowly defined subgroup of autistic children. Eleven children (10 males, 1 female; age range: 43-84 months) were enrolled. Inclusion criteria for the study were derived from our central hypothesis and index case characteristics. They include 1) Meets diagnostic criteria for Autistic Disorder (DSM IV 299.00); 2) Other genetic and medical diagnoses have been adequately evaluated and ruled out; 3) Definable, rapid onset after 12 months of age; 4) Antecedent antimicrobial use (<2 months of autism symptom onset); 5) Persistent loose stool history, with diarrhea onset before autism symptoms; 6) Symptoms for <4 years; 7) Child is 2-8 years of age; 8) No evidence of any significant medical problem that might complicate treatment such as renal, cardiac or pulmonary disease, severe enterocolitis (visible blood or pus in the stool), or chronic infection (e.g., tuberculosis); and 9) Clinically static for 3 months (no new neuroleptic, seizure, or other medications), with no elective changes during the study, and 10) No antimicrobial use for at least 2 months prior to entry into the study. All children had diarrhea and regressive onset of autistic features (occurring at a mean of 17.7±3.4 months) as previously defined in the literature.
The Developmental Profile II provided descriptive developmental levels to contrast with developmental age. […] The Childhood Autism Rating Scale (CARS) was also administered. The CARS is a 15-item behavioral rating scale developed to identify children with autism, and to distinguish them from developmentally handicapped children without the autism syndrome. Based upon CARS diagnostic categories, six children met the criteria for severe autism, two for moderate autism, and three for mild autism. The vancomycin dose was 500 mg/day given orally as a liquid (500 mg/6 ml), divided into 2 ml TID for eight weeks. This was followed by four weeks of oral treatment with a probiotic mixture of Lactobacillus acidophilus, L. bulgaricus, and Bifidobacterium bifidum (40×10^9 cfu/ml).
Two measures of potential improvement were examined: I) Children were videotaped for 30 minutes at baseline and once during therapy in a playroom environment. At each session, the child was directed to play with a series of puzzles, books, blocks, and dolls by the mother and then by the evaluator. At the end of the trial, a clinical child psychologist (who was provided with a brief explanation of our working hypothesis) compared coded, paired videotapes of 10 of the 11 children studied (video was not available for one child). The psychologist viewed each pair of tapes and scored them. […] 2) Behavior and communication analog rating scales were completed by the study physician at baseline, during therapy, and at follow-up in a manner similar to previously validated methods for other disease states. Results are presented as median scores to account for potential non-linear score increment.

[2] = oral administration; cited from earlier work
Desulfovibrio = assay: Antimicrobial susceptibility testing, CLSI serial two-fold plate dilution; type: cell-based; conditions: for MIC: Desulfovibrio
[3] = Index case: 12 week therapeutic trial of oral vancomycin; type: in vivo, human; conditions: 125 mg QID oral, 12 weeks; person
Procedure: […] Diarrhea began after three 10 day courses of broad spectrum antimicrobials prescribed over a six week period for “chronic otitis media.” There was no blood or pus in the stool nor associated constitutional symptoms. There was profound behavioral and developmental deterioration, along with emergence of severe autistic features.
A 12 week therapeutic trial of oral vancomycin (125 mg QID) was begun with expanded observations by a pediatric neuropsychologist pre- and post-treatment. At baseline, the child was not on a special diet nor was […] taking any vitamin supplements. Three days after initiation of the vancomycin therapy, a hyperactivity pattern emerged which lasted for four days. […] became affectionate and relatively calm. […] promptly achieved toilet training and increased vocabulary. Follow-up behavioral observations after eight weeks of therapy noted an increase in on-task performance, compliance with parental requests, awareness of environmental surroundings, and persistence when engaging in positive activities. A significant reduction in repetitive and self-stimulatory behaviors was also noted. The child's educational therapies remained unchanged for both six months before and during the vancomycin trial. Shortly after vancomycin discontinuation, behavioral deterioration was observed. Though still improved over baseline, […] eventually lost most of the initial gains.

CN[C@H](CC(C)C)C(=O)N[C@H]1C(=O)N[C@@H](CC(N)=O)C(=O)N[C@H]2C(=O)N[C@H]3C(=O)N[C@H](C(=O)N[C@H](C(=O)O)c4cc(O)cc(O)c4-c4cc3ccc4O)[C@H](O)c3ccc(c(Cl)c3)Oc3cc2cc(c3O[C@@H]2O[C@H](CO)[C@@H](O)[C@H](O)[C@H]2O[C@H]2C[C@](C)(N)[C@H](O)[C@H](C)O2)Oc2ccc(cc2Cl)[C@H]1O [Vancomycin]
improvement: Analog rating scale, communication ([1]; unblinded, group as a whole, Wilcoxon Signed Ranks Z=2.9 p=0.003) | Analog rating scale, behavior ([1]; unblinded, group as a whole, Wilcoxon Signed Ranks Z=-2.9, p=0.003)
256 µg/mL: MIC (Desulfovibrio; Desulfovibrio strain 8236) | MIC (Desulfovibrio; Desulfovibrio strain 10831) | MIC (Desulfovibrio; Desulfovibrio strain 11081) | MIC (Desulfovibrio; Desulfovibrio strain 11378) | MIC (Desulfovibrio; Desulfovibrio strain 12379)
returned towards baseline: Analog ratings at long-term follow-up ([1]; two to eight months after discontinuance, in all but one child)
six: Children with brief (1-4 days) period of hyperactivity ([1]; within three days of initiating antibiotic treatment, eleven children enrolled)
two: Time to substantial behavioral deterioration after discontinuance ([1]; reported by most parents, telephone follow-up)
> 512 µg/mL: MIC (Desulfovibrio; Desulfovibrio strain 4019) | MIC (Desulfovibrio; Desulfovibrio strain 8381) | MIC (Desulfovibrio; Desulfovibrio strain 8907) | MIC (Desulfovibrio; Desulfovibrio strain 8933) | MIC (Desulfovibrio; Desulfovibrio strain 8951) | MIC (Desulfovibrio; Desulfovibrio strain 9070) | MIC (Desulfovibrio; Desulfovibrio strain 9120) | MIC (Desulfovibrio; Desulfovibrio strain 9706) | MIC (Desulfovibrio; Desulfovibrio strain 11094) | MIC (Desulfovibrio; Desulfovibrio strain 11232) | MIC (Desulfovibrio; Desulfovibrio strain 11346) | MIC (Desulfovibrio; Desulfovibrio strain 11437) | MIC (Desulfovibrio; Desulfovibrio strain 11568) | MIC (Desulfovibrio; Desulfovibrio strain 11623) | MIC (Desulfovibrio; Desulfovibrio strain 11717) | MIC (Desulfovibrio; Desulfovibrio strain 11789) | MIC (Desulfovibrio; Desulfovibrio strain 11830) | MIC (Desulfovibrio; Desulfovibrio strain 11949) | MIC (Desulfovibrio; Desulfovibrio strain 13966) | MIC (Desulfovibrio; Desulfovibrio type strain 7757^T)
1 µg/mL: MIC (Desulfovibrio; Desulfovibrio type strain 29098^T)
eight of ten: Blinded assessment of coded, paired videotapes: children with improvement during therapy ([1]; 500 mg/day orally for eight weeks, no change in one, possible deterioration in one)
2-5,000 mcg/gm: Fecal levels after oral administration [2]
512 µg/mL: MIC (Desulfovibrio; Desulfovibrio strain 9976)
rapid and dramatic clinical improvement: Clinical outcome of index case [3]
not very active on a weight basis: MIC against Desulfovibrio, summary in words (Desulfovibrio; discussion of Table 14)
